The test deals with 4T1 tumor. The test can be described thus: 4T1 tumor growth in mice. It is filed as in vivo. The conditions noted are these: for 4T1 tumor growth: echinomycin 0.15 mg/kg, vs vehicle. On the procedure: FIGS. 3A-D show the therapeutic effects of echinomycin on tumor growth in immunodeficient and immunocompetent mice. FIG. 3A. Experimental design. Three murine tumor lines were tested: 4T1, E0771, or MC38. For each, immunodeficient and immunocompetent mice were inoculated (day 0), and treatment was initiated with control liposomes (vehicle) or echinomycin liposomes (LEM) on day 6, indicated by arrows in FIGS. 3B-3D. The kinetics of tumor growth were compared to deduce the role of adaptive immunity in the therapeutic effects of echinomycin. FIG. 3B. 4T1 cells (1×10^6) were transplanted into mammary fat pad of NSG and BALB/c mice, which received vehicle or echinomycin (0.15 mg/kg) (arrows). Mean tumor volumes±SEM are shown for one of two independent experiments (n=10/group). FIG. 3C. Kinetics of E0771 tumor growth. E0771 cells (0.7×10^6) were transplanted into mammary fat pad of NSG and C57BL/6 mice, which received vehicle or echinomycin (0.25 mg/kg) (arrows). Mean tumor volumes±SEM are shown for one of two independent experiments (n=5/group). FIG. 3D. Kinetics of MC38 tumor growth. MC38 cells (1×10^6) were transplanted subcutaneously into NSG and C57BL/6 mice, which received vehicle or echinomycin (0.15 mg/kg) (blue arrows). Mean tumor volumes±SEM are shown for one of two independent experiments (n=5/group).
FIGS. 5A-D show at echinomycin potentiates the therapeutic effect of anti-CTLA-4 antibody. FIG. 5A. Experimental design. In 4T1, E0771, or MC38 syngeneic tumor models, the effects of echinomycin on tumor growth were tested in combination with anti-CTLA-4 therapy (9D9). Tumor growth kinetics in mice receiving vehicle, echinomycin, and anti-CTLA-4 (9D9) monotherapies, or anti-CTLA-4+anti-PD-1 (9D9+RMP1-14) are shown. Starting on day 6 after tumor cell inoculation, mice received vehicle or echinomycin and/or various mAbs. The mean tumor volumes±SEM are shown for each group. […]
Tumor Models The details of each experiment are specified in the figure legends. […] Tumor volumes were calculated and reported based on the formula […], where a is the longer diameter, and b is the shorter diameter. […]

The source of these data is US20240139280A1, “USE OF HIF-1-ALPHA INHIBITORS IN CANCER IMMUNOTHERAPY” (ONCOC4, INC., priority 2021, published 2024).

Molecules are shown by their SMILES.

With `CSC1SC[C@H]2C(=O)N(C)[C@@H](C(C)C)C(=O)OC[C@@H](NC(=O)c3cnc4ccccc4n3)C(=O)N[C@@H](C)C(=O)N(C)[C@@H]1C(=O)N(C)[C@@H](C(C)C)C(=O)OC[C@@H](NC(=O)c1cnc3ccccc3n1)C(=O)N[C@@H](C)C(=O)N2C` (stereo in doubt) [echinomycin, N,N′-(2,4,12,15,17,25-hexamethyl-11,24-bis(1-methylethyl)-27-(methylthio)-3,6,10,13,16,19,23,26-octaoxo-9,22-dioxa-28-thia-2,5,12,15,18,25-hexaazabicyclo(12.12.3)nonacosane-7,20-diyl)bis(2-quinoxalinecarboxamide)], the “4T1 growth inhibition, immunocompetent vs immunodeficient mice” value (BALB/c vs NSG) is on record as “more significantly inhibited in immunocompetent mice than in immunodeficient mice”. Moreover, the 4T1 tumor growth result by setting is: (immunocompetent BALB/c) “significantly inhibited 4T1 tumor growth”; (immunodeficient NSG) “significantly inhibited 4T1 tumor growth”.
